According to ChEMBL document CHEMBL2424622, “Development of amino-pyrimidine inhibitors of c-Jun N-terminal kinase (JNK): kinase profiling guided optimization of a 1,2,3-benzotriazole lead” (Bioorg Med Chem Lett, 2013):

What was measured:
[1] = molecular target: Dual specificity protein kinase TTK (Homo sapiens, UniProt P33981); experiment: Binding affinity to TTK (unknown origin)
[2] = molecular target: Glycogen synthase kinase-3 beta (Homo sapiens, UniProt P49841); experiment: Binding affinity to GSK3B (unknown origin)
[3] = molecular target: NUAK family SNF1-like kinase 2 (Homo sapiens, UniProt Q9H093); experiment: Binding affinity to SNARK (unknown origin)
[4] = molecular target: Serine/threonine-protein kinase Nek5 (Homo sapiens, UniProt Q6P3R8); experiment: Binding affinity to NEK5 (unknown origin)
[5] = molecular target: Dual specificity mitogen-activated protein kinase kinase 6 (Homo sapiens, UniProt P52564); experiment: Binding affinity to MEK6 (unknown origin)
[6] = molecular target: Citron Rho-interacting kinase (Homo sapiens, UniProt O14578); experiment: Binding affinity to CIT (unknown origin)
[7] = molecular target: Myosin light chain kinase family member 4 (Homo sapiens, UniProt Q86YV6); experiment: Binding affinity to SgK085 (unknown origin)
[8] = molecular target: Ribosomal protein S6 kinase alpha-1 (Homo sapiens, UniProt Q15418); experiment: Binding affinity to RPS6KA1 (unknown origin)
[9] = molecular target: Serine/threonine-protein kinase 16 (Homo sapiens, UniProt O75716); experiment: Binding affinity to STK16 (unknown origin)
[10] = molecular target: Dual specificity mitogen-activated protein kinase kinase 4 (Homo sapiens, UniProt P45985); experiment: Binding affinity to MEK4 (unknown origin)
[11] = molecular target: Mitogen-activated protein kinase 14 (Homo sapiens, UniProt Q16539); experiment: Binding affinity to p38-alpha (unknown origin)
[12] = Oral bioavailability in Hanover-Wistar rat at 20 mg/kg; type: ADME, organism-based; details: in vivo
[13] = molecular target: Death-associated protein kinase 3 (Homo sapiens, UniProt O43293); experiment: Binding affinity to DAPK3 (unknown origin)
[14] = molecular target: Atypical kinase COQ8B, mitochondrial (Homo sapiens, UniProt Q96D53); experiment: Binding affinity to ADCK4 (unknown origin)
[15] = molecular target: Mitogen-activated protein kinase 11 (Homo sapiens, UniProt Q15759); experiment: Binding affinity to p38-beta (unknown origin)
[16] = molecular target: Calcium/calmodulin-dependent protein kinase type 1 (Homo sapiens, UniProt Q14012); experiment: Binding affinity to CAMK1 (unknown origin)
[17] = molecular target: Serine/threonine-protein kinase SIK2 (Homo sapiens) (UniProt Q9H0K1); experiment: Competitive binding affinity to QIK (unknown origin) at 10 uM in presence of ATP relative to control

Glycogen synthase kinase-3 beta, sequence (P49841 whole entry): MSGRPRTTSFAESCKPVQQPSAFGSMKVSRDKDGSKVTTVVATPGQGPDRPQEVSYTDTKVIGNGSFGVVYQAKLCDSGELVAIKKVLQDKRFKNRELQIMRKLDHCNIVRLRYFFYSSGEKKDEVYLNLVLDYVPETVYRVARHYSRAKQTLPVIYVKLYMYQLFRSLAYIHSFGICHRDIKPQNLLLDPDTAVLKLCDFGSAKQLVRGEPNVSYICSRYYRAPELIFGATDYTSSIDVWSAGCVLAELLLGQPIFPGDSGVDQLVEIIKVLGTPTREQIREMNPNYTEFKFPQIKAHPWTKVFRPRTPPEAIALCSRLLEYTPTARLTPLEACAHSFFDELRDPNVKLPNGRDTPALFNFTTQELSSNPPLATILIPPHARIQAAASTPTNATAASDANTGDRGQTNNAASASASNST
Calcium/calmodulin-dependent protein kinase type 1, sequence (Q14012 whole entry): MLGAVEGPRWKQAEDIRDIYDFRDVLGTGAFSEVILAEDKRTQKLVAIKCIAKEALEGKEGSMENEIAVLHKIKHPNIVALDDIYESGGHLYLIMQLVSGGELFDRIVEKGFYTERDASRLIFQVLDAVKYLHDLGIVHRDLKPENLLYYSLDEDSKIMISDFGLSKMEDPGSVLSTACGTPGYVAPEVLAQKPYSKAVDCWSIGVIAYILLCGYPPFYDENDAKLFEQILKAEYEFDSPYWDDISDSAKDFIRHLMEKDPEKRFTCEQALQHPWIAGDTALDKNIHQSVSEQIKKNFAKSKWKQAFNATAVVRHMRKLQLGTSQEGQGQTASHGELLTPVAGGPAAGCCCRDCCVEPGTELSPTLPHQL
Dual specificity protein kinase TTK, sequence (P33981 whole entry): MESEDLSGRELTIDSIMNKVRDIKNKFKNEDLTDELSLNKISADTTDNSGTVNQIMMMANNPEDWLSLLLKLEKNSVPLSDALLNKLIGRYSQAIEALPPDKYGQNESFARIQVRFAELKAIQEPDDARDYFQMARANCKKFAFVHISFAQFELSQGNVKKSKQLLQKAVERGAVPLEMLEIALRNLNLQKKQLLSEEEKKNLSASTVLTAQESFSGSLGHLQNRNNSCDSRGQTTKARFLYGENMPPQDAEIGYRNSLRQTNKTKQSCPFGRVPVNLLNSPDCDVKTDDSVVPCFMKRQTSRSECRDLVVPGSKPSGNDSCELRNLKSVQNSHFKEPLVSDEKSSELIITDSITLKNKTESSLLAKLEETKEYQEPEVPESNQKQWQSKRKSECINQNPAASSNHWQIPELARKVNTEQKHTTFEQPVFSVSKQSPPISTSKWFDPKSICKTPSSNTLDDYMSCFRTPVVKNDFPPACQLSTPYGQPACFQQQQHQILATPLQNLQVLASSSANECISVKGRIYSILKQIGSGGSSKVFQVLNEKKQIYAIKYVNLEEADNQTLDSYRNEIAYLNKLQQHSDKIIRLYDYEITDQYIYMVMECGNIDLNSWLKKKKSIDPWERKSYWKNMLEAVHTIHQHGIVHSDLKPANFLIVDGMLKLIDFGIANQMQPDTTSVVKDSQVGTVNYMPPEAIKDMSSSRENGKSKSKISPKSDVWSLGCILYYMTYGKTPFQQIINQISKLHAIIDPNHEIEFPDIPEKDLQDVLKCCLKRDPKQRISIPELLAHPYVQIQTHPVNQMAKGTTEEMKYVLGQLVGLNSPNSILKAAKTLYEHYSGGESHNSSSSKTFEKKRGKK
Mitogen-activated protein kinase 14, sequence (Q16539 whole entry): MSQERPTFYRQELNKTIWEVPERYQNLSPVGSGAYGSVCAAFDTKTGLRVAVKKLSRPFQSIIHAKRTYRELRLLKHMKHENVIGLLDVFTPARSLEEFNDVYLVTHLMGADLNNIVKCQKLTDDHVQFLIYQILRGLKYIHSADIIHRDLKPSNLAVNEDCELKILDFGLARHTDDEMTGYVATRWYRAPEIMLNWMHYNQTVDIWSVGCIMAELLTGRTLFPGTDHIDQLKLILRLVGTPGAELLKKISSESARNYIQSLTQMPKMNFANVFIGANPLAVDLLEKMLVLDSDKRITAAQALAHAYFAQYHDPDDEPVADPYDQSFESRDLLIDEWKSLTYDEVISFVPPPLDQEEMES
Citron Rho-interacting kinase, sequence (O14578 whole entry): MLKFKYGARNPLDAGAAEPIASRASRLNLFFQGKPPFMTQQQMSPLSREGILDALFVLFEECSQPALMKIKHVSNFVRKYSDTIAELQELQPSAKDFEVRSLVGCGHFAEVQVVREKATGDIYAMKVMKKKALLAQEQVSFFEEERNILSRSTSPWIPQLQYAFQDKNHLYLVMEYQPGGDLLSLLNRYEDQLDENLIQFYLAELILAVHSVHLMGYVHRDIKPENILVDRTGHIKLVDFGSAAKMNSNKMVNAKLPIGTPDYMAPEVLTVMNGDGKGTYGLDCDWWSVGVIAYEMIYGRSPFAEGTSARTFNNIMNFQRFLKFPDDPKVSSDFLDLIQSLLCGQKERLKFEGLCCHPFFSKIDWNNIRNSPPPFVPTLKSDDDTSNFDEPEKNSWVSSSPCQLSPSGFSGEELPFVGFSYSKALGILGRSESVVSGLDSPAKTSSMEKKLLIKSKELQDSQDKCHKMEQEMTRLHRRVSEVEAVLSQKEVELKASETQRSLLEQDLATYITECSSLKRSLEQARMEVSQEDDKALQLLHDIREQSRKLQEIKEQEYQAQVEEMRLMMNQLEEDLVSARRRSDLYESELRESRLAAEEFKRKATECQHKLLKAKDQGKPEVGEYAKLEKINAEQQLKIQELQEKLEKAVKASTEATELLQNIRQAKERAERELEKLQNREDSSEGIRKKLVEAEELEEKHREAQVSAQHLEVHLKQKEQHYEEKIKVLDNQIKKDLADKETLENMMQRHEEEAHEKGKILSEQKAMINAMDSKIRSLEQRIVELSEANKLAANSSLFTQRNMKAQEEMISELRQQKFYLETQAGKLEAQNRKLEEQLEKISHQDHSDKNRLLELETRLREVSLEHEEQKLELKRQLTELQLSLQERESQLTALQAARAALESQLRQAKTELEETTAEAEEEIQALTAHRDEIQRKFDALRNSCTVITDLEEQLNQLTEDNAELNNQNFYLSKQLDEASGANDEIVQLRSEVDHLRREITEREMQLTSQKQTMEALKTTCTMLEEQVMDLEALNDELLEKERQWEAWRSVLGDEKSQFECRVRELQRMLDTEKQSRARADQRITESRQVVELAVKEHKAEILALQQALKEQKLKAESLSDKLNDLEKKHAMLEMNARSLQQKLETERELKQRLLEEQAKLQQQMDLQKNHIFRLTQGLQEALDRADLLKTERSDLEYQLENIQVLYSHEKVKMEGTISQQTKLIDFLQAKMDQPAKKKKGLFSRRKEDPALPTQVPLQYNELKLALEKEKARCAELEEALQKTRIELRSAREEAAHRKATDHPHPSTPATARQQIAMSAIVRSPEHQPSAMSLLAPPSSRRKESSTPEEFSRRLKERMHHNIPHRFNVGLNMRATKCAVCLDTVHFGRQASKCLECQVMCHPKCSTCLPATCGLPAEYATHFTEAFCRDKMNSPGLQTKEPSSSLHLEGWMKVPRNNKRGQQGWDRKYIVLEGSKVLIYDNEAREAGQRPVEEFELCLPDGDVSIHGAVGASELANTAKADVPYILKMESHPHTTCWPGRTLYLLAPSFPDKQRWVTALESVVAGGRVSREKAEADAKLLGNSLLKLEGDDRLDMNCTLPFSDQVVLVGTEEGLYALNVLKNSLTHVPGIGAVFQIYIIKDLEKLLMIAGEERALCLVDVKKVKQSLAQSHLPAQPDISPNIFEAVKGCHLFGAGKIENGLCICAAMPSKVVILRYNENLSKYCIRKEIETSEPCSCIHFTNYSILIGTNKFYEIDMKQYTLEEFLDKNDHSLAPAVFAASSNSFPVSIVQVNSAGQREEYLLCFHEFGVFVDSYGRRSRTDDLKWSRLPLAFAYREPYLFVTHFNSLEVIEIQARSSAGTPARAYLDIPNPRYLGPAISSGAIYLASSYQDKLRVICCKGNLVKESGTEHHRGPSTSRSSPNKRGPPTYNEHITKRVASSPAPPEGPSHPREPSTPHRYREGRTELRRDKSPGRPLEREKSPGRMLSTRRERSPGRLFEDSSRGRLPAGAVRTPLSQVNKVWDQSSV
Myosin light chain kinase family member 4, sequence (Q86YV6 whole entry): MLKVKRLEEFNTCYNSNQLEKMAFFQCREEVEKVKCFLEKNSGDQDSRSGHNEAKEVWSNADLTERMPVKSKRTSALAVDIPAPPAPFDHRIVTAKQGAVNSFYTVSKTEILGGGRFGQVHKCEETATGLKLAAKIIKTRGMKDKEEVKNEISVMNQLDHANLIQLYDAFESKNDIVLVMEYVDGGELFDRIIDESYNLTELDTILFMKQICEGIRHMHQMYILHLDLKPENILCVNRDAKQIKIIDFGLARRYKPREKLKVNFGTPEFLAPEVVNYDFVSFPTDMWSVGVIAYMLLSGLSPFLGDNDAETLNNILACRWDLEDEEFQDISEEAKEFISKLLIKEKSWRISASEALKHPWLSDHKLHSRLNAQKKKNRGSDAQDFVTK
Death-associated protein kinase 3, sequence (O43293 whole entry): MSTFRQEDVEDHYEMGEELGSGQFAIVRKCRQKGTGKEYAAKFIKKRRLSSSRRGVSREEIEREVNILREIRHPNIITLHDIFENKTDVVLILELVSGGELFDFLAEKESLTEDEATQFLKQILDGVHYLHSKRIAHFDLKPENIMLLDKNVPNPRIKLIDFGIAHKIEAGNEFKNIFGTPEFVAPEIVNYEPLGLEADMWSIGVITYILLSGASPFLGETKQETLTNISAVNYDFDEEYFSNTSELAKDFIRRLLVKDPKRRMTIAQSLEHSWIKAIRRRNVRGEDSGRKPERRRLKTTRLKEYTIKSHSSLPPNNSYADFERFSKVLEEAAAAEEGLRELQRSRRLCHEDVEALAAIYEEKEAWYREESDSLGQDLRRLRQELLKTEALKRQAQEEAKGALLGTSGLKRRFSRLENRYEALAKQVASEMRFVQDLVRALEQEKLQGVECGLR

CS(=O)(=O)CCCOc1cccc2c1ccn2-c1ccnc(N[C@H]2CC[C@H](C(=O)N3CCC(O)CC3)CC2)n1
Kd [1]: 1.9 µM
Kd [2]: 5.4 µM
Kd [3]: 2.6 µM
Kd [4]: 1.4 µM
Kd [5]: 0.31 µM
Kd [6]: 2.7 µM
Kd [7]: 0.62 µM
Kd [8]: 2.1 µM
Kd [9]: 0.45 µM
Kd [10]: 0.39 µM
Kd [11]: 8.8 µM
bioavailability [12]: 13%
Kd [13]: 0.88 µM
Kd [14]: 4.8 µM
Kd [15]: 3.2 µM
Kd [16]: 4.3 µM

O[C@H]1CC[C@H](Nc2nccc(-c3n[nH]c4ccccc34)n2)CC1
inhibition [17]: < 50%
